Reference: patent US8367716B2 (priority 2003, dated 2013)

Tested on: S. aureus Newbould 305 strain
Assay: Mouse mastitis model of S. aureus infection
Format: in vivo, Staphylococcus aureus
Description: A mouse mastitis model of S. aurreus infection using the S. aureus Newbould 305 strain (Brouillette et al., 2003, 2004a and 2004b) was used to show the effectiveness of treatment with c-di-GMP. Three mice per group and two glands per mouse were used for a total of six samples per treatment. 100 CFU (colony forming units) of S. aureus Newbould 305 strain were inoculated into each mammary gland. Five or 50 nanomoles of c-di-GMP was administered by injection twice into each mammary gland at 0 hr. (pre-mixed with the S. aureus inoculum in 100 μl volume, i.e., 50 or 500 μM concentration) and at 4 hr. post-infection (in 50 μl, i.e., 100 or 1000 μM). The mammary glands were harvested at 10 hrs. post-infection. Considering the volume of the mammary gland with milk to be about 250 μl, the final concentration of c-di-GMP in the mammary gland at each injection was estimated to be 20 μM or 200 μM.

Nc1nc2c(ncn2C2OC3COP(=O)(O)OC4C(COP(=O)(O)OC3C2O)OC(n2cnc3c(=O)[nH]c(N)nc32)C4O)c(=O)[nH]1 (centres unmarked) [c-di-GMP, 3′,5′-cyclic diguanylic acid]
effect on CFU counts in the mammary gland (5 or 50 nanomoles per injection): significant dose-dependent suppressing effect | inhibition of S. aureus infection of the mammary gland (CFU counts) (50 nanomoles injected into mammary gland at 0 and 4 hr., harvest 10 hrs. post-infection): at least 10 fold
